Patent US20260356823A1, “SODIUM CHANNEL REGULATOR AND USE THEREOF” (SHANGHAI HUILUN PHARMACEUTICAL CO., LTD., priority 2022, published 2026)

Tests used:
Nav1.8 = conditions: background; cited from earlier work
[1] = background; cited from earlier work
human Nav1.8 = molecular target: T1, human Nav1.8 (Homo sapiens, UniProt Q9Y5Y9); experiment: In vitro inhibition of Nav1.8, manual patch clamp on HEK293 cells stably expressing human Nav1.8; assay type: cell-based; conditions: human Nav1.8, manual patch clamp; for inhibition at 0.1 µM: HEK293, 100 nM, read-out: Inhibitory activity (inhibition/% at 100 nM concentration)
T1 construct: expressed in transfected cells
Protocol: Bioactivity Test 1: In Vitro Inhibition of Nav1.8 by the Compound
By using a manual patch clamp on HEK293 cells stably expressing human Nav1.8, currents on Nav1.8 before and after administration of the compound were compared after the currents on Nav1.8 were stable, to obtain the effect of the compound on the Nav1.8 channel.
The to-be-tested compound was dissolved in DMSO to prepare a 9 mM stock solution, which was taken and dissolved in extracellular fluid at a desired concentration on the day of testing. The extracellular fluid included the following ingredients (mM): NaCl, 137; KCl, 4; CaCl2, 1.8; MgCl2, 1; HEPES, 10; glucose, 10; and pH 7.4 (NaOH titration). All reagents were purchased from Sigma (St. Louis, MO).
The cells were clamped at −80 mV and depolarized with a sustained 10 ms square wave to 10 mV to obtain a current on Nav1.8. This process was repeated every 5 seconds. A maximum current caused by the square wave was detected. After the current is stable, the to-be-tested compound (dissolved in the extracellular fluid at the desired concentration) was perfused. After the current is stable, the strength of blocking Nav1.8 by the compound was calculated based on the currents before and after perfusion of the compound. pCLAMP 10 (Molecular Devices, Union City, CA) was used. That the current is stable means that the current changes over time within a limited range.

Nav1.8 sodium channel = molecular target: T2, Nav1.8 sodium channel (Homo sapiens, UniProt Q9Y5Y9); experiment: In vitro inhibition IC50 of Nav1.8, whole-cell patch clamp on CHO cell line stably expressing Nav1.8 (SCN10A, NM_006514); assay type: cell-based; conditions: CHO cells stably expressing Nav1.8, whole-cell patch clamp, room temperature
T2 construct: expressed in transfected cells
Description: Bioactivity Test 2: In Vitro Inhibition IC50 of Nav1.8 by the Test Compound
A CHO cell line stably expressing the Nav1.8 sodium channel was used for experimental assays with the following gene information: Sodium channel, voltage-gated, type 8, alpha (SCN10A), cDNA strictly similar to GenBank accession number: NM_006514.
Before the patch clamp assay, the cells were detached with 0.25%-Trypsin-EDTA, and 6.5×10^3 cells were spread onto cover slips and cultured in a 24-well plate (final volume: 500 μL) for 18 h. Then, the assay was carried out.
Fluids for electrophysiological recording included: extracellular fluid: K-007-1, 140 mM NaCl, 3.5 mM KCl, 1 mM MgCl2·6H2O, 2 mM CaCl2·2H2O, 10 mM D-Glucose, 10 mM HEPES, 1.25 mM NaH2PO4·2H2O, and NaOH for adjustment to pH=7.4; and intracellular fluid: Nav-001-2, 50 mM CsCl, 10 mM NaCl, 10 mM HEPES, 60 mM CsF, 20 mM EGTA, and […]. The extracellular fluid was stored for 2 weeks. The intracellular fluid was prepared and dispensed as 1 mL per tube, and frozen in a refrigerator at −20° C. Freshly thawed intracellular fluid was used for daily experiments. All intracellular fluids have to be used up within three months. Beyond three months, the old intracellular fluid has to be discarded, and the intracellular fluid needs to be prepared again.
Patch clamp assay: Whole-cell patch-clamp recording Nav1.8 sodium currents under voltage stimulation was carried out as follows: When a whole-cell seal was formed, the cell was clamped at a voltage of −120 mV and maintained for 30 ms. The cell was depolarized from the clamping voltage to 0 mV and maintained for 50 ms. Then, the voltage was restored to −50 mV (for a specific voltage, refer to a half-inactivation voltage from an IV test) and maintained for 5 s. Next, the cell membrane potential was restored to −120 mV and maintained for 20 ms. Then, the cell was depolarized to 0 mV and maintained for 50 ms. Finally, the voltage was restored to the clamping voltage −120 mV and maintained for 30 ms. Data was collected at […]. The effect of the drug on a peak sodium current was observed. Experimental data was collected by an EPC 10 amplifier (HEKA) and stored in PatchMaster (HEKA) software.
A capillary glass tube was pulled into a recording electrode by using a microelectrode puller. The electrode filled with the intracellular fluid was loaded into an electrode holder. A microelectrode manipulator was manipulated under an inverted microscope to immerse the electrode into the extracellular fluid, and an electrode resistance (Rpip) was recorded. The electrode was brought into contact with the cell surface, and suction was applied under negative pressure to form a high-resistance seal (GQ). In this case, fast capacitance compensation was carried out, and negative pressure was then applied to break the cell membrane through suction to form a whole-cell recording mode. Then, slow capacitance compensation was carried out, and experimental parameters such as a membrane capacitance (Cm) and a series resistance (Rs) were recorded. No leakage compensation was carried out.
The drug was administered after the Nav1.8 current obtained by whole-cell recording. The drug acted at each concentration for 5 min (or until the current was stable), and then the drug was tested at a next concentration. Each test compound was tested for multiple concentrations. The cover slips with the cells spread were placed in a recording bath under an inverted microscope. A blank control extracellular fluid and a working solution of the to-be-tested compound were perfused by gravity through the recording bath into the cells from low concentration to high concentration. Fluid exchange was carried out by using a peristaltic pump during the recording. A current detected for each cell in the compound-free extracellular fluid served as its own control. For each concentration, at least three cells were tested independently for three times. […]

[2] = Efficacy on a mouse model of incisional pain, mechanical pain threshold (PWT); assay type: in vivo; conditions: intravenous
Description: Bioactivity Test 3: Efficacy of the Compound on a Mouse Model of Incisional Pain
Model establishment: Through isoflurane anesthesia and routine disinfection, a 0.5 cm longitudinal skin incision extending to the toe was made with a blade on the plantar surface of the left hindfoot about 0.2 cm distal to the joint; and the plantar muscle was separated, slightly elevated, and then incised longitudinally, taking care not to disrupt the muscle origin. The incision was sutured horizontally and interruptedly with 5-0 nylon thread (2 sutures).
Solvents: A solvent for the test compound was 5% DMSO+10% Solutol+85% Saline, and a solvent for a positive compound TRV-130 was 10% ethanol+10% cremophor+80% water. […]
Mechanical pain threshold measurement: Before modeling, a pre-modeling mechanical pain threshold was measured. At 2.5 h after modeling, a pre-administration mechanical pain threshold was measured. Oral administration was carried out after the measurement, and a mechanical pain threshold was measured at 2 h after the administration. […] Each animal was measured three times at intervals of 3-5 minutes, and an average value was calculated.
Data analysis: Relevant data was organized in Office Excel 2013 and GraphPad Prism 6.0. Data was expressed as Mean±SEM (standard error). […]

T2 sequence (Q9Y5Y9 whole entry): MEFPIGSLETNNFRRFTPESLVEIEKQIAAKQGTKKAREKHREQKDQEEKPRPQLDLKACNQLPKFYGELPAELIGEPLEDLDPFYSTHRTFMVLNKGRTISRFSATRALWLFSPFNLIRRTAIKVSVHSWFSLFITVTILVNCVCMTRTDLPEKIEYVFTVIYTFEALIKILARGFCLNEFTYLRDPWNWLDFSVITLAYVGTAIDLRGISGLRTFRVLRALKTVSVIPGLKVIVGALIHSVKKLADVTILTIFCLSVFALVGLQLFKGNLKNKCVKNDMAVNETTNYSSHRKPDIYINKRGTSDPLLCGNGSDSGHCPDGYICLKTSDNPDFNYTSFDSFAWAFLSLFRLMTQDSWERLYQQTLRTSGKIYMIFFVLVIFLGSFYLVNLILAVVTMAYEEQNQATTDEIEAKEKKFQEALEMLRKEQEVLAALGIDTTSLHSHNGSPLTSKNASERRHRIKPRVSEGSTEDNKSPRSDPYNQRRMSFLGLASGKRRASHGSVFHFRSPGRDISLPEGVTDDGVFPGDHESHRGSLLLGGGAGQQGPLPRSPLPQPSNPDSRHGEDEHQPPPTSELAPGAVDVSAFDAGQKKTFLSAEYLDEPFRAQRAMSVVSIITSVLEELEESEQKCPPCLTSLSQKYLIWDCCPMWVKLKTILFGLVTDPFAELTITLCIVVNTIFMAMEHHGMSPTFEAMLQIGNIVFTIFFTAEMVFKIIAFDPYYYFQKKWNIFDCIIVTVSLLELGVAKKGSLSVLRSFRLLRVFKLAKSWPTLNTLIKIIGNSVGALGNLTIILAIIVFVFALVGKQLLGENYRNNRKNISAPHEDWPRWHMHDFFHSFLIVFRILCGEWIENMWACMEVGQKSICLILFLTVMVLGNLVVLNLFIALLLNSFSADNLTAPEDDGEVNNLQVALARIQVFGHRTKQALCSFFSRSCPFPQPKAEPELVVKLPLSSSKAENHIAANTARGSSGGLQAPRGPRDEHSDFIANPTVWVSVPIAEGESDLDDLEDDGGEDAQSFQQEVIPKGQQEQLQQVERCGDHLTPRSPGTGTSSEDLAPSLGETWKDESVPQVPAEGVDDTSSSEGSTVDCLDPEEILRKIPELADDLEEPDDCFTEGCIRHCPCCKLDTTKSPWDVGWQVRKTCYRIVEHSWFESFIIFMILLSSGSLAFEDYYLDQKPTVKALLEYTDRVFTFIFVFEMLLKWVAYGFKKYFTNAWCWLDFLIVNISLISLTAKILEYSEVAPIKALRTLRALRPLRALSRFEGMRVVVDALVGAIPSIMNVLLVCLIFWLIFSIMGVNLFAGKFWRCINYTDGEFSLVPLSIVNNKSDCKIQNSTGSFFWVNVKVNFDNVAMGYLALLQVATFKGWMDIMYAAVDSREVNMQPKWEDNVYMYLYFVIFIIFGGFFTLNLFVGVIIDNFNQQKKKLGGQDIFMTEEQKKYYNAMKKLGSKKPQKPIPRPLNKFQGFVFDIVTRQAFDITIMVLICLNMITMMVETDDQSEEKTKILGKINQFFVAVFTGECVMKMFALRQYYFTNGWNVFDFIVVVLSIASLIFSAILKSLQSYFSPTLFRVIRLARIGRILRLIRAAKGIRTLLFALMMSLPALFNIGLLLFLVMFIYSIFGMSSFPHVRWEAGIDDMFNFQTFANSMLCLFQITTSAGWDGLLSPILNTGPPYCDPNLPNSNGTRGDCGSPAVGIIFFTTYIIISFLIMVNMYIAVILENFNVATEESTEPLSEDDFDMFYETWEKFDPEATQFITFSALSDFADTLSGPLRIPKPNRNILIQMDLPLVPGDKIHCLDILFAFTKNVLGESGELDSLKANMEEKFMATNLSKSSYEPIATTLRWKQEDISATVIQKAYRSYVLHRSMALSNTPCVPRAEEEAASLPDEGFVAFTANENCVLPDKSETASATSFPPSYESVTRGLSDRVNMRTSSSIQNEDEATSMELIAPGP
T1 sequence (Q9Y5Y9 whole entry): as above

In the case of `COc1cc(NC(=O)c2ccc(-c3ccc(Cl)cc3)o2)cc(OC)c1` [Example A-803467], the “selectivity (in words)” value (Nav1.8) is given as “poor selectivity”, the “bioavailability (in words)” value [1] is given as “low bioavailability” and the “pharmacokinetic data (in words)” value [1] is given as “poor pharmacokinetic data”.
In the case of `COc1c(C2C(C(=O)Nc3ccc(C(N)=O)c(C(N)=O)c3)OC(C)(C(F)(F)F)C2C)ccc(F)c1F` (single isomer, unassigned) [Example 30-2], the “Inhibitory activity (inhibition/% at 100 nM concentration)” value (human Nav1.8; 100 nM, 0.1 µM) is reported as “A (A ≥ 50)” and the IC50 (Nav1.8 sodium channel) is reported as less than 0.5 nM.
Molecule `COc1c([C@H]2[C@H](C(=O)Nc3ccnc(S(N)(=O)=O)c3)O[C@]3(C(F)(F)F)CC[C@]23C)ccc(F)c1F` (relative stereo) [Example 87, rel-(1R,3R,4S,5R)-4-(3,4-difluoro-2-methoxyphenyl)-5-methyl-N-(2-sulfamoylpyridin-4-yl)-1-trifluoromethyl-2-oxabicyclo[3.2.0]heptane-3-carboxamide] has an inhibition at 0.1 µM (human Nav1.8) of no less than 50% and an IC50 (Nav1.8 sodium channel) of 3 nM.
`COc1c([C@H]2[C@H](C(=O)Nc3ccc4cn[nH]c(=O)c4c3)O[C@@](C)(C(F)(F)F)[C@H]2C)ccc(F)c1F` (relative stereo) [Example 3, rel-(2R,3S,4S,5R)-3-(3,4-difluoro-2-methoxyphenyl)-4,5-dimethyl-N-4-oxa-3,4-dihydrophthalazin-6-yl)-5-(trifluoromethyl)tetrahydrofuran-2-carboxamide] gave an inhibition at 0.1 µM (human Nav1.8) of no less than 50% and an IC50 (Nav1.8 sodium channel) of 9 nM.
`COc1c([C@H]2[C@H](C(=O)Nc3ccnc(C(N)=O)c3)OC3(C(F)(F)F)CCC23C)ccc(F)c1F` (relative stereo) [Example 59, rel-(2R,3S)-4-({[3-(3,4-difluoro-2-methoxyphenyl)-3a-methyl-5a-(trifluoromethyl)hexahydrocyclobuta[2,1-b]furan-2-yl]carbonyl}amino)pyridin-2-carboxamide] gave an inhibition at 0.1 µM (human Nav1.8) of no less than 50% and an IC50 (Nav1.8 sodium channel) of 2 nM.
`[2H]C([2H])([2H])NS(=O)(=O)c1cc(NC(=O)[C@@H]2O[C@@](C)(C(F)(F)F)[C@@H](C)[C@H]2c2ccc(F)c(F)c2OC)ccn1` (relative stereo) [Example 82, rel-(2R,3S,4S,5R)-3-(3,4-difluoro-2-methoxyphenyl)-4,5-dimethyl-N-(2-(N-(methyl-d3)sulfamoyl)pyridin-4-yl)-5-(trifluoromethyl)tetrahydrofuran-2-carboxamide] gave an inhibition at 0.1 µM (human Nav1.8) of no less than 50% and an IC50 (Nav1.8 sodium channel) of less than 1 nM.
`COc1c(C2[C@H](C(=O)Nc3ccc(F)c(S(N)(=O)=O)c3)O[C@@](C)(C(F)(F)F)[C@H]2C)ccc(F)c1F` (relative stereo) [Example 81] showed an inhibition at 0.1 µM (human Nav1.8) of no less than 50% and an IC50 (Nav1.8 sodium channel) of less than 0.5 nM.
Molecule `COc1c([C@H]2[C@H](C(=O)Nc3ccc4c(c3)NC(=O)C4)O[C@@](C)(C(F)(F)F)[C@H]2C)ccc(F)c1F` (relative stereo) [Example 2] has an inhibition at 0.1 µM (human Nav1.8) of no less than 50% and an IC50 (Nav1.8 sodium channel) of 67 nM.
In the case of `CNC(=O)c1ccc(-c2cc(Cl)cc(Cl)c2Cl)c(N)n1` [PF-01247324], the “selectivity (in words)” value (Nav1.8) is given as “poor selectivity”, the “bioavailability (in words)” value [1] is given as “low bioavailability” and the “pharmacokinetic data (in words)” value [1] is given as “poor pharmacokinetic data”.
Work on `COc1c([C@H]2[C@H](C(=O)Nc3ccc4c(c3)C(=O)NCC4)O[C@@](C)(C(F)(F)F)[C@H]2C)ccc(F)c1F` (relative stereo) [Example 6, rel-(2R,3S,4S,5R)-3-(3,4-difluoro-2-methoxyphenyl)-4,5-dimethyl-N-(1-oxo-1,2,3,4-tetrahydroisoquinolin-7-yl)-5-(trifluoromethyl)tetrahydrofuran-2-carboxamide] yielded an inhibition at 0.1 µM (human Nav1.8) of no less than 50% and an IC50 (Nav1.8 sodium channel) of 2 nM.
`COc1c([C@H]2[C@H](C(=O)Nc3ccc(F)c(C(N)=O)c3)O[C@]3(C(F)(F)F)CC[C@]23C)ccc(F)c1F` (relative stereo) [Example 85, rel-(1R,3R,4S,5R)—N-(3-carbamoyl-4-fluorophenyl)-4-(3,4-difluoro-2-methoxyphenyl)-5-methyl-1-trifluoromethyl-2-oxabicyclo[3.2.0]heptane-3-carboxamide] gave an inhibition at 0.1 µM (human Nav1.8) of no less than 50% and an IC50 (Nav1.8 sodium channel) of less than 1 nM.
With `COc1ccsc1CNCC[C@@]1(c2ccccn2)CCOC2(CCCC2)C1` [TRV-130] the PWT after modeling ([2]; TRV-130 0.5 mg/kg group, after modeling, pre-administration, 2.5 h after modeling) was 5.40 g and the “PWT 2 h after administration” value ([2]; TRV-130 0.5 mg/kg, 2 h after administration) was 8.94 g.
For `C[C@@H](C(N)=O)[C@H](N)c1nc2ccc(C(C)(C)C)cc2[nH]1` [PF-06305591], the “selectivity (in words)” value (Nav1.8) is listed as “poor selectivity”, the “bioavailability (in words)” value [1] is listed as “low bioavailability” and the “pharmacokinetic data (in words)” value [1] is listed as “poor pharmacokinetic data”.
In the case of `CONC(=O)c1cc(NC(=O)[C@@H]2O[C@@](C)(C(F)(F)F)[C@@H](C)[C@H]2c2ccc(F)c(F)c2OC)ccn1` (relative stereo) [Example 21], the inhibition at 0.1 µM (human Nav1.8) is reported as no less than 50% and the IC50 (Nav1.8 sodium channel) is reported as 26 nM.
In the case of `COc1c([C@H]2[C@H](C(=O)Nc3cc(F)[nH]c(=O)c3)O[C@@](C)(C(F)(F)F)[C@H]2C)ccc(F)c1F` (relative stereo) [Example 24, rel-(2R,3S,4S,5R)-3-(3,4-difluoro-2-methoxyphenyl)-N-(6-fluoro-2-oxo-1H-pyridin-4-yl)-4,5-dimethyl-5-(trifluoromethyl)tetrahydrofuran-2-carboxamide], the inhibition at 0.1 µM (human Nav1.8) is reported as no less than 50%.
